From ChEMBL document CHEMBL3044686, “Synthesis and biological evaluation of some new quinazolin-4(3H)-ones derivatives as anticonvulsants” (Med Chem Res, 2013)
Calls of active or inactive are those of the source. The rule behind the calls is not given here.

Tests used:
[1] = organism: Mus musculus; test: Anticonvulsant activity in albino CF-1 Mus musculus (mouse) assessed as minimum dose required to protect half or more animals against maximal electroshock-induced seizures measured after 0.5 hr by electroshock seizure method; type: functional; details: albino CF-1, 0.5 h, read-out: MED
[2] = organism: Mus musculus; test: Toxicity in albino CF-1 Mus musculus (mouse) assessed as minimum dose required to induce motor impairment in half or more animals measured after 4 hr by rotarod test; type: organism-based; details: in vivo
[3] = tested on: Mus musculus; test: Toxicity in albino CF-1 Mus musculus (mouse) assessed as motor impairment at 300 mg/kg measured after 0.5 hr by rotarod test; type: organism-based; parameters: dose 300 mg/kg; details: in vivo
[4] = organism: Mus musculus; test: Anticonvulsant activity in albino CF-1 Mus musculus (mouse) assessed as minimum dose required to protect half or more animals against maximal electroshock-induced seizures measured after 4 hr by electroshock seizure method; type: functional; details: albino CF-1, 4 h, read-out: MED
[5] = tested on: Mus musculus; test: Toxicity in albino CF-1 Mus musculus (mouse) assessed as motor impairment at 300 mg/kg measured after 4 hr by rotarod test; type: organism-based; parameters: dose 300 mg/kg; details: in vivo
[6] = tested on: Mus musculus; test: Anticonvulsant activity in albino CF-1 Mus musculus (mouse) assessed as protection against maximal electroshock-induced seizures at 300 mg/kg measured after 0.5 hr by electroshock seizure method; type: functional, organism-based; parameters: dose 300 mg/kg
[7] = tested on: Mus musculus; test: Induction of CNS depressant activity in albino CF-1 Mus musculus (mouse) assessed as duration of immobility at 100 mg/kg, ip measured after 30 min by Porsolt's force swim pool method (reference value: 52.7 +/-0.70 secs); type: organism-based, Central nervous system; parameters: dose 100 mg/kg, route intraperitoneal; details: in vivo, 0.5 h
[8] = tested on: Mus musculus; test: Induction of CNS depressant activity in albino CF-1 Mus musculus (mouse) assessed as increase in immobility at 100 mg/kg, ip measured after 30 min by Porsolt's force swim pool method; type: organism-based, Central nervous system; parameters: dose 100 mg/kg, route intraperitoneal; details: in vivo, 0.5 h
[9] = organism: Mus musculus; test: Toxicity in albino CF-1 Mus musculus (mouse) assessed as minimum dose required to induce motor impairment in half or more animals measured after 0.5 hr by rotarod test; type: organism-based; details: in vivo

Row | Time [7] [s] | Activity [8] [%] | SMILES | minimal effective dose [1] [mg/kg] | MED [2] [mg/kg] | Activity [3] | minimal effective dose [4] [mg/kg] | Activity [5] | Activity [6] | MED [9] [mg/kg]
1 | – | – | O=C1NC(=O)C(c2ccccc2)(c2ccccc2)N1 [PHENYTOIN] | 30 | 100 | Non-toxic | 30 | – | – | –
2 | – | – | CC(C)Oc1cccc(/C=N/n2c(-c3ccccc3)nc3ccccc3c2=O)c1 | 300 | – | Non-toxic | 300 | Non-toxic | – | –
3 | – | – | C=CCOc1cccc(/C=N/n2c(-c3ccccc3)nc3ccccc3c2=O)c1 | 300 | – | Non-toxic | 300 | Non-toxic | – | –
4 | – | – | COc1cccc(/C=N/n2c(-c3ccccc3)nc3ccccc3c2=O)c1 | – | – | Non-toxic | 100 | Non-toxic | inactive | –
5 | 68.3 | 29.6 | CCOc1cccc(/C=N/n2c(-c3ccccc3)nc3ccccc3c2=O)c1 | 100 | – | Non-toxic | 100 | Non-toxic | – | –
6 | – | – | O=c1c2ccccc2nc(-c2ccccc2)n1/N=C/c1cccc(OCc2ccccc2)c1 | – | 300 | Non-toxic | 300 | – | inactive | –
7 | – | – | O=c1c2ccccc2nc(-c2ccccc2)n1/N=C/c1cccc(O)c1 | – | – | Non-toxic | 100 | Non-toxic | inactive | –
8 | 82.4 | 56.35 | NC(=O)N1c2ccccc2C=Cc2ccccc21 [CARBAMAZEPINE] | 30 | 100 | – | 30 | – | – | 300
9 | – | – | CCCCOc1cccc(/C=N/n2c(-c3ccccc3)nc3ccccc3c2=O)c1 | 300 | – | Non-toxic | 100 | Non-toxic | – | –
10 | 80.2 | 52.18 | CCCOc1cccc(/C=N/n2c(-c3ccccc3)nc3ccccc3c2=O)c1 | 100 | – | Non-toxic | 30 | Non-toxic | – | –
11 | 111.1 | 110.81 | C=CCCOc1cccc(/C=N/n2c(-c3ccccc3)nc3ccccc3c2=O)c1 | 300 | – | Non-toxic | 100 | Non-toxic | – | –
